Measured values as given in patent US20250319053A1, “INHIBITORS OF THE PEPTIDYL-PROLYL CIS/TRANS ISOMERASE (PIN1), COMBINATIONS AND USES THEREOF” (DANA-FARBER CANCER INSTITUTE, INC., priority 2021, published 2025).

System: PDAC tumors in GDA mice
Experiment: KPC mouse-derived orthotopic allograft (GDA) mouse model
Type: in vivo
Experimental: 2) the KPC Genetically engineered mouse-derived orthotopic allografts (GDA) mouse model (Hingorani et al., Cancer Cell 7, 469-483 (2005); Li et al., Comput Struct Biotechnol J 17, 498-506 (2019)). Mouse PDAC cells were established from KPC mouse pancreatic tumor tissues, followed by orthotopically injecting 1×10^6 mouse PDAC cells in 50 μL Matrigel (356231, Coaning) into the pancreas of female 8 week-old syngeneic immunocompetent C57BL/6 mice (Jackson Laboratories). 3) PDAC Patient-derived Tumor orthotopic xenografted (PDTX) mouse model (Gilles et al., Clin Cancer Res 24, 1734-1747 (2018); Rubio-Viqueira et al., Clin Cancer Res 12, 4652-4661 (2006)). PDAC PDX tumors were obtained from Dr. Muthuswamy and Dr. Hidalgo and divided into 4×2 mm pieces, followed by xenografting orthotopically into the pancreas of female 8-week-old immunodeficient NOD.Cg-Prkdc^scid Il12rg^tm1Wjl/SzJ (NOD scid gamma; NSG) mice (Jackson Laboratories). 4) PDAC Patient-derived Organoid and CAFs orthotopic xenograft (PDOX) mouse model (Dantes et al., JCI Insight 5, 137809 (2020); (Koikawa et al., Cancer letters 425, 65-77 (2018)). 5×10^4 patient derived PDAC organoids and 5×10^4 patient derived CAFs in 50 μL of Matrigel were injected orthotopically into the pancreas of female 8 week-old immunodeficient NSG mice (Jackson Laboratories).
Briefly, all mice were randomly selected to receive treatments groups. Tumor sizes were measured by weekly palpation with electronic caliper or ultrasound, and when tumors were reached >0.5 cm, the treatment was started. Briefly, animals were placed under general anesthesia with 2%-3% isoflurane once a week. Under general anesthesia, the abdominal wall became very flaccid, and the muscle tone of the mouse was very low. The mouse was scuffed with the left hand to allow for palpation and measurement with the right hand. This allowed to detect the firm pancreatic mass by palpation, and to determine its size by electronic caliper measurements. […] In the transgenic KPC mice, where spontaneous tumor development was expected, weekly palpation was started from age 8 weeks. When the tumor by palpation after age 12 weeks could not be detected, the mice were monitored by ultrasound. Once the maximum length >0.5 cm tumor was detected, the mice were randomized to treatment, and then followed tumor growth by electronic caliper measurement. To validate the external caliper measurements, the tumor size was measured prior to euthanization of the mice and then measured the actual tumor size upon necropsy to ascertain concordance. […] To evaluate the effects of CD8+ T cell or NK1.1′ cell depletion in GDA mice, mice were treated with anti-CD8 (200 μg, i.p., twice a week, BE0117, BioXcell) (Pantelidou et al., Cancer Discov. 9, 722-37 (2019)) or anti-NK1.1 (25 μg, i.p., twice a week, BE0036, BioXcell) (Waggoner et al., Nature 481, 394-398 (2011)), or vehicle (IgG isotype control), and/or Sulfopin (40 mg/kg, i.p., every day) (Pin1i−2) or vehicle (Sulfopin diluted solution; 5% NMP, 5% Solutol, 20% DMSO), and/or anti-PD1 (200 μg, i.p., every 3-4 days, BE0146, BioXcell) or vehicle (IgG isotype control). To test Sulfopin and/or PTX and/or anti-CTLA4 combination treatment in GDA mice, mice were treated with Sulfopin (40 mg/kg, i.p., every day) (Pin1i−2) or vehicle (Sulfopin diluted solution; 5% NMP, 5% Solutol, 20% DMSO), and/or PTX (10 mg/kg i.p., weekly) or vehicle (PTX diluted solution; 10% DMSO, 40% PEG300, 5% Tween 80, 45% Saline), and/or anti-CTLA-4 (250 μg, i.p., every 3-4 days, BE0032, BioXcell) or vehicle (IgG isotype control).

[1] = GDA mice, FIG. 9A, GEM 20 mg/kg, n=6, vehicle 34 days

Row | Compound | Median survival [1] [days] | desmoplastic (fibrotic) and immunosuppressive TME (GDA mice) | CAF activation (IF for αSMA or PDGFRα) (GDA mice, 4 weeks) | collagen deposition (Sirius Red staining) (GDA mice, 4 weeks) | Median survival (GDA mice, FIG. 9I, treated up to 150 days, GEM 10 mg/kg weekly, αPD1, n=8, vehicle 36.5 days) [days] | tumor growth (overt tumor-bearing GDA mice)
1 | Nc1ccn([C@@H]2O[C@H](CO)[C@@H](O)C2(F)F)c(=O)n1 [GEM, gemcitabine, reference compound] | 42 | – | – | – | – | –
2 | CC(C)(C)CN(C(=O)CCl)C1CCS(=O)(=O)C1 (stereo not shown) [Pin1i−2, sulfopin] | 56 | potently reduce the fibrotic TME | significantly reduced | significantly reduced | 54 | significantly reduced tumor growth
